Laboratory results as given in ChEMBL document CHEMBL2311317, “Organosilicon molecules with medicinal applications” (J Med Chem, 2013).
Values belong to the molecule of their own block, whether it stands above or below them. Activity calls are given as the source filed them. No cut-off for these calls is given here.

Key:
[1] = test system: HepG2; assay: Growth inhibition of human HepG2 cells; format: functional, cell-based
[2] = test system: HL-60; assay: Growth inhibition of human HL60 cells by Sulforhodamine B assay; format: functional
[3] = biological target: Opioid receptors; mu/kappa/delta (Homo sapiens) (UniProt P41145+P41143+P35372); assay: Inhibition of opioid receptor (unknown origin) at […]
Sequence of Opioid receptors; mu/kappa/delta (Homo sapiens) (P35372 whole entry, looked up): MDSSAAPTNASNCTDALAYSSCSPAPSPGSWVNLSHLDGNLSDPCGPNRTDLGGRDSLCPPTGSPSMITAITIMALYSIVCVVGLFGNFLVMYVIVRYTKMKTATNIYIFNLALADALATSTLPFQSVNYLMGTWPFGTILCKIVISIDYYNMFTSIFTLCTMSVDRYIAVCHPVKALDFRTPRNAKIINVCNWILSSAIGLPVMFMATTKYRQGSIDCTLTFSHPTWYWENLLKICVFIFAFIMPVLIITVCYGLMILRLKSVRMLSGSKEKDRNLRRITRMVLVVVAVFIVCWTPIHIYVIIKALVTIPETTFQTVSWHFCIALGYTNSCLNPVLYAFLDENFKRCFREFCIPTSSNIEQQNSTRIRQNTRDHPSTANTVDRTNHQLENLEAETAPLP
Sequence of Opioid receptors; mu/kappa/delta (Homo sapiens) (P41143 whole entry, looked up): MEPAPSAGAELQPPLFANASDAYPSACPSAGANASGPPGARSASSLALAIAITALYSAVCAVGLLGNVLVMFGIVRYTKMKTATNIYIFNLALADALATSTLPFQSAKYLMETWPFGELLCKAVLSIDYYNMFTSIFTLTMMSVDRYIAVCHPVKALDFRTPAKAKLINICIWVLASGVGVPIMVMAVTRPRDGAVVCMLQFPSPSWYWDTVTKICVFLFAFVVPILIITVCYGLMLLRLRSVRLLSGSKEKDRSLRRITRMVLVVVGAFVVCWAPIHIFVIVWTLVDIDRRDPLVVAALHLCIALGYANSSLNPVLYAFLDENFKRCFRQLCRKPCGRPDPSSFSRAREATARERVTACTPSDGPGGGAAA
Sequence of Opioid receptors; mu/kappa/delta (Homo sapiens) (P41145 whole entry, looked up): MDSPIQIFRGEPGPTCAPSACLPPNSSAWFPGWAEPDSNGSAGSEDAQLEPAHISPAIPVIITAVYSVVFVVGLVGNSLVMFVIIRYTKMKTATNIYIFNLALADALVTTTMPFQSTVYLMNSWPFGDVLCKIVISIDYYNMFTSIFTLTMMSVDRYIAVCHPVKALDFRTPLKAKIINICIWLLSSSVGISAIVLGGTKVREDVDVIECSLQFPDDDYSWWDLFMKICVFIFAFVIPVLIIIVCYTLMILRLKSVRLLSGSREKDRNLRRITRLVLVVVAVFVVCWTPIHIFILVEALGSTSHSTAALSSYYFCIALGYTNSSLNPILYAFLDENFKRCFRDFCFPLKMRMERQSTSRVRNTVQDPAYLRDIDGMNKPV

[4] = Inhibition of serine protease (unknown origin); design: species or system Homo sapiens
[5] = test system: A2780; assay: Growth inhibition of human A2780 cells by Sulforhodamine B assay; format: functional
[6] = Inhibition of HIV protease; design: species or system Human immunodeficiency virus
[7] = Inhibition of thermolysin metalloprotease (unknown origin); design: species or system Homo sapiens

SMILES: COC(=O)/C=C/C[C@H]1OCCC[C@@H]1O[Si](C)(C)C(C)(C)C (relative stereo)
GI50 [2]: 22 µM

SMILES: COc1ccc(C(CN(C)C)[Si]2(O)CCCC2)cc1 (centres undefined)
inhibition [3]: < 50%

SMILES: COC(=O)/C=C/C[C@H]1OCCC[C@@H]1OC(C)=O
GI50 [2]: inactive

SMILES: COC(=O)/C=C\[C@H]1OCCC[C@H]1O[Si](C)(C)C(C)(C)C (relative stereo)
GI50 [5]: 7.3 µM

SMILES: CC(C)(C)[Si](C)(C)O[C@@H]1CCCO[C@@H]1/C=C\CO (relative stereo)
GI50 [5]: > 100 µM

SMILES: COc1ccc(C(CN(C)C)[Si]2(O)CCCCC2)cc1 (racemic)
inhibition [3]: < 50%

SMILES: COC(=O)/C=C/[C@H]1OCCC[C@H]1O[Si](C)(C)C(C)(C)C
GI50 [5]: 98 µM

More lines, now with the values ahead:

EC50 [1]: 17 µM
SMILES: COc1ccc([Si](C)(C)[C@H]2[C@H](CC(=O)N3CCC[C@H]3CO)O[C@@]3(C(=O)N(Cc4cccc(I)c4)c4ccccc43)[C@@H]2C)cc1

GI50 [2]: inactive
SMILES: COC(=O)/C=C/C[C@H]1OCCC[C@@H]1OC(=O)c1ccccc1 (relative stereo)

Ki [4]: 0.107 µM
SMILES: C[C@H](C[Si](O)(O)[C@H](Cc1ccccc1)NC(=O)[C@@H]1CCCN1)C(N)=O

GI50 [2]: inactive
SMILES: COC(=O)/C=C/C[C@H]1OCCC[C@@H]1O (relative stereo)

IC50 [6]: 0.014 µM
SMILES: O=C(N[C@H]1c2ccccc2C[C@H]1O)[C@H](Cc1ccccc1)C[Si](O)(O)C[C@@H](Cc1ccccc1)C(=O)N[C@H]1c2ccccc2C[C@H]1O

IC50 [7]: 0.041 µM
SMILES: CC(C)C[C@H](NC(=O)[C@H](Cc1ccccc1)C[Si](O)(O)CNC(=O)CCc1ccccc1)C(=O)O

inhibition [3]: < 50%
SMILES: CN(C)CC(c1ccccc1)[Si]1(O)CCCCC1 (centres undefined)
